We go through four molecules from ChEMBL document CHEMBL2069256, “Development of Toxoplasma gondii calcium-dependent protein kinase 1 (TgCDPK1) inhibitors with potent anti-toxoplasma activity” (J Med Chem, 2012).

The target of series [1] is Proto-oncogene tyrosine-protein kinase Src (Homo sapiens, UniProt P12931).
A short description of series [2]: Inhibition of Toxoplasma gondii CDPK1 using syntide-2 peptide as substrate after 90 mins by kinase glo-luciferase assay. (Kinase-Glo measures the ATP left after a reaction by luminescence.)
Series [3] concerns the target Epidermal growth factor receptor (Homo sapiens, UniProt P00533). Put plainly: Inhibition of human EGFR using poly glu-Tyr as substrate after 30 mins.
The nature of series [4]: Cytotoxicity against human CRL8155 cells assessed as inhibition of cell growth after 48 to 72 hrs by alamar blue assay. In kind it is cell-based. In general terms: Alamar Blue is a resazurin reagent that responds to reducing activity.
In series [5] the test system is Toxoplasma gondii. Description: microbe, parasite or virus in culture. The note with it: 44 h.
Another series concerns HL-60. Description: Cytotoxicity against human HL60 cells assessed as inhibition of cell growth after 48 to 72 hrs by alamar blue assay. The format is cell-based.
A further series has as its target T1, Ephrin type-A receptor 3 (Homo sapiens, UniProt P29320).
T1 sequence (P29320 whole entry): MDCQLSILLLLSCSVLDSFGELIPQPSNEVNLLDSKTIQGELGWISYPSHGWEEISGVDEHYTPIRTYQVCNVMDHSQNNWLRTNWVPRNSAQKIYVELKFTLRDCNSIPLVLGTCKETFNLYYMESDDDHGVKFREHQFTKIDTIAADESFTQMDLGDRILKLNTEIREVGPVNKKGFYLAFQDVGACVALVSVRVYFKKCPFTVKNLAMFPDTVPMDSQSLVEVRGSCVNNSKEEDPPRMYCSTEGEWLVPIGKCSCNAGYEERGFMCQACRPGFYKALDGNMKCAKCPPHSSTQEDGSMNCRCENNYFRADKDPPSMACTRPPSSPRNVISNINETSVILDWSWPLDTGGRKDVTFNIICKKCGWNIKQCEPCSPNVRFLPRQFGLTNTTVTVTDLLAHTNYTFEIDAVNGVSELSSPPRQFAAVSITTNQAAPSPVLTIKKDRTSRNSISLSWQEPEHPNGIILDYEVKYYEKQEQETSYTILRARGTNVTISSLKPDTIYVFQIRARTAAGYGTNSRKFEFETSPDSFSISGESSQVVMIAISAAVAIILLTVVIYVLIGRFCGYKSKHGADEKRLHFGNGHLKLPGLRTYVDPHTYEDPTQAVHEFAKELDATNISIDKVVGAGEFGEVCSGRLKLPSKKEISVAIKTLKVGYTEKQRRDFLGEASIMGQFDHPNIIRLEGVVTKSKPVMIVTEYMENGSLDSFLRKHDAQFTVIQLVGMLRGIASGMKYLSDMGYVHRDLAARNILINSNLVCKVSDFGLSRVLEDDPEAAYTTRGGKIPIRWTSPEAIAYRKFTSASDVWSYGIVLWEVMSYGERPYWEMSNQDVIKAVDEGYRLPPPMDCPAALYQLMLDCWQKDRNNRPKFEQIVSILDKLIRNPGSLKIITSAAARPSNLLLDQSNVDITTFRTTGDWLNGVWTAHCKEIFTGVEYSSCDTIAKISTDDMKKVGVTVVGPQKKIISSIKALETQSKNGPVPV
Put plainly: Inhibition of human EPHA3 using myelin basic protein as substrate after 120 mins.

Series [6] concerns Toxoplasma gondii. Put plainly: Antiparasitic activity against Toxoplasma gondii expressing CDPK1 Gly128Met mutant. In kind it is functional, organism-based.
The target of series [7] is Tyrosine-protein kinase Lck (Homo sapiens, UniProt P06239). Put plainly: Inhibition of human LCK using Ac-EIYGEFKKK-OH as substrate after 60 mins.
In series [8] the target is Tyrosine-protein kinase ABL1 (Homo sapiens, UniProt P00519). Put plainly: Inhibition of human ABL using EAIYAAPFAKKK-OH as substrate by phosphor imaging method.
For series [9], the target named is Mitogen-activated protein kinase 14 (Homo sapiens, UniProt Q16539). Description: Inhibition of human p38alpha using myelin basic protein as substrate after 180 mins.
For series [10], the target named is Tyrosine-protein kinase CSK (Homo sapiens, UniProt P41240). Description: Inhibition of human CSK using Ac-KKKKEEIYFFF-OH as substrate after 180 mins.
A short description of series [11]: Inhibition of Toxoplasma gondii CDPK1 Gly128Met mutant using syntide-2 peptide as substrate after 90 mins by kinase glo-luciferase assay.

The structures appear in SMILES notation. Where only a bound is given, the exact number is not on record here.

By IC50 is commonly meant the concentration at which inhibition is half-maximal. Low readings indicate inhibition by little substance, high ones a need for much substance. Turning to `CCOc1ccc2cc(-c3nn(CC4CCN(C(C)=O)CC4)c4ncnc(N)c34)ccc2c1`, the IC50 is over 10 µM in series [1] and 0.011 µM in series [2].

Broadly, the GI50 is the concentration giving 50% growth inhibition. What is called EC50 is the midpoint of the concentration-response curve. A higher EC50 goes with weaker potency. Turning to `CCOc1ccc2cc(-c3nn(CC4CCN(C)CC4)c4ncnc(N)c34)ccc2c1`, the IC50 in series [3] is over 10 µM; in [1], over 10 µM; in series [2], 0.0029 µM; on Ephrin type-A receptor 3 it was over 10 µM; in [7] it was 3.3 µM; in series [8], 4.6 µM. The IC50 in series [9] and in series [10] was over 10 µM in each case. Moreover, the GI50 (in series [4]; with HL-60) was over 10 µM each time. Further, the figures for the EC50 in the series with Toxoplasma gondii [5] and with Toxoplasma gondii [6] were 0.14 µM and 1 µM, respectively.

The molecule `Nc1ncnc2c1c(-c1ccc3cc(OCc4ccc(Cl)cc4)ccc3c1)nn2CC1CCNCC1` came in with an EC50 in the series on Toxoplasma gondii [5] of 0.46 µM. The same molecule had an IC50 in series [11] of 1.1 µM.

As for `CCOc1ccc2cc(-c3nn(CC4CCNCC4)c4ncnc(N)c34)ccc2c1`, the IC50 in series [3] is over 10 µM; in [1] it was over 10 µM; against Ephrin type-A receptor 3 it was over 10 µM; in series [7] it was 0.96 µM; in [8] it was over 10 µM; in series [9] it was over 10 µM. In [10], this molecule showed an IC50 of 10 µM. Also, the GI50 (in series [4]; in the series with HL-60) was over 10 µM in each case. The results for the EC50 with Toxoplasma gondii [5] and in the series on Toxoplasma gondii [6] were 0.052 µM and 1 µM, respectively.
